The values that follow come from patent US8304419B2, “Chemical compounds” (priority 2007, dated 2012).

pIC50: −log10 of the molar value. Counter-ions that a name gives are not always drawn. Like-named read-outs stand apart in the source and are kept apart here.

For the assay, the system named is HIV wild type (WTRVA). The experiment in a line: HeLa cell assay, wild type virus (WTRVA). It counts as cell-based, HIV-1. Also on record: scale not given here. As to conditions: Human immunodeficiency virus 1, HeLa.
The mark [1] stands for this setting: HeLa cell assay, read-out: IC50 against WTRVA.
[2] abbreviates: HeLa-CD4-LTR-β-gal cells, wild type virus, read-out: WTRVA activity level.

`N#Cc1cc(Cl)cc(Oc2c(C(F)F)ccc(CNC(=O)c3[nH]cnc3Cl)c2F)c1` [Example 252, 4-chloro-N-{[3-[(3-chloro-5-cyanophenyl)oxy]-4-(difluoromethyl)-2-fluorophenyl]methyl}-1H-imidazole-5-carboxamide]: the pIC50 under setting [1] was greater than 8.00.

As for `N#Cc1cc(Cl)cc(Oc2c(Cl)ccc(CNC(=O)c3cn(C(c4ccccc4)(c4ccccc4)c4ccccc4)cn3)c2F)c1` [Example 83, N-({4-chloro-3-[(3-chloro-5-cyanophenyl)oxy]-2-fluorophenyl}methyl)-1-(triphenylmethyl)-1H-imidazole-4-carboxamide], under setting [2], the pIC50 is less than 6.00.

On to `N#Cc1cc(Cl)cc(Oc2c(Cl)ccc(CNC(=O)c3[nH]c4ccccc4c3Br)c2F)c1` [Example 53, 3-bromo-N-({4-chloro-3-[(3-chloro-5-cyanophenyl)oxy]-2-fluorophenyl}methyl)-1H-indole-2-carboxamide], for which, under setting [2], the pIC50 is 6.00 to 8.00.

With `N#Cc1cc(Cl)cc(Oc2c(Cl)ccc(CNC(=O)c3[nH]c4cc(O)ccc4c3Br)c2F)c1` [Example 61, 3-bromo-N-({4-chloro-3-[(3-chloro-5-cyanophenyl)oxy]-2-fluorophenyl}methyl)-6-hydroxy-1H-indole-2-carboxamide trifluoroacetate], the pIC50 under setting [2] is greater than 8.00.

For `N#Cc1cc(Cl)cc(Oc2c(Cl)ccc(CNC(=O)c3csc(-c4cccnc4)n3)c2F)c1` [Example 98, N-({4-chloro-3-[(3-chloro-5-cyanophenyl)oxy]-2-fluorophenyl}methyl)-2-(3-pyridinyl)-1,3-thiazole-4-carboxamide trifluoroacetate], under setting [2], the pIC50 is greater than 8.00.

With `N#Cc1cc(Cl)cc(Oc2c(Cl)ccc(CNC(=O)c3cc4cc(O)ccc4[nH]3)c2F)c1` [Example 26, N-({4-chloro-3-[(3-chloro-5-cyanophenyl)oxy]-2-fluorophenyl}methyl)-5-hydroxy-1H-indole-2-carboxamide], the pIC50 under setting [2] is greater than 8.00.

As to `COc1cccc2[nH]c(C(=O)NCc3ccc(Cl)c(Oc4cc(Cl)cc(C#N)c4)c3F)cc12` [Example 34, N-({4-chloro-3-[(3-chloro-5-cyanophenyl)oxy]-2-fluorophenyl}methyl)-4-(methyloxy)-1H-indole-2-carboxamide], under setting [2], the pIC50 is greater than 8.00.

Regarding `N#Cc1cc(Cl)cc(Oc2c(Br)ccc(CNC(=O)c3nc(N)[nH]c3Cl)c2F)c1` [Example 239, 2-amino-N-({4-bromo-3-[(3-chloro-5-cyanophenyl)oxy]-2-fluorophenyl}methyl)-4-chloro-1H-imidazole-5-carboxamide], under setting [1], the pIC50 was greater than 8.00.

As for `C=Cc1ccc(CNC(=O)c2[nH]c(C)nc2Cl)c(F)c1Oc1cc(Cl)cc(C#N)c1` [Example 269, 4-Chloro-N-({3-[(3-chloro-5-cyanophenyl)oxy]-4-ethenyl-2-fluorophenyl}methyl)-2-methyl-1H-imidazole-5-carboxamide], the pIC50 under setting [1] was greater than 8.00.

Turning to `N#Cc1cc(Cl)cc(Oc2c(Cl)ccc(CNC(=O)c3cc4cc(N)ccc4[nH]3)c2F)c1` [Example 111, 5-amino-N-({4-chloro-3-[(3-chloro-5-cyanophenyl)oxy]-2-fluorophenyl}methyl)-1H-indole-2-carboxamide trifluoroacetate], under setting [2], the pIC50 is greater than 8.00.

Consider `N#Cc1cc(Cl)cc(Oc2c(Cl)ccc(CNC(=O)c3cc4ccccc4o3)c2F)c1` [Example 47, N-({4-chloro-3-[(3-chloro-5-cyanophenyl)oxy]-2-fluorophenyl}methyl)-1-benzofuran-2-carboxamide trifluoroacetate], for which the pIC50 under setting [2] is 6.00 to 8.00.

For `Cc1nc(Br)c(C(=O)NCc2cc(Br)c(Br)c(Oc3cc(Cl)cc(C#N)c3)c2F)[nH]1` [Example 234, 4-bromo-N-({4,5-dibromo-3-[(3-chloro-5-cyanophenyl)oxy]-2-fluorophenyl}methyl)-2-methyl-1H-imidazole-5-carboxamide trifluoroacetate], under setting [1], the pIC50 was greater than 8.00.

In the case of `N#Cc1cc(Cl)cc(Oc2c(Cl)ccc(CNC(=O)c3ccc[nH]3)c2F)c1` [Example 57, N-({4-chloro-3-[(3-chloro-5-cyanophenyl)oxy]-2-fluorophenyl}methyl)-1H-pyrrole-2-carboxamide], the pIC50 under setting [2] was greater than 8.00.
